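Where inhibition never reached the appropriate level, the endpoint shown equals the highest concentration tested. Otherwise, values were interpolated linearly from a five-concentration, 48-hour dose response in 96-well plates. GI50 is the concentration that inhibits growth by half.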 Calls of active or inactive are those of the source. Rule as the data show it: active = GI50 up to about 1.1 µM and inactive = higher.
Tests used:
Assay in all cases: growth of human tumour cells (NCI), 48 h
[1] = test system: 786-0
[2] = test system: A498
[3] = test system: A549
[4] = test system: ACHN
[5] = test system: BT-549
[6] = test system: CAKI-1
[7] = test system: CCRF-CEM
[8] = test system: COLO 205
[9] = test system: DU-145
[10] = test system: EKVX
[11] = test system: HCC 2998
[12] = test system: HCT-116
[13] = test system: HCT-15
[14] = test system: HOP-62
[15] = test system: HOP-92
[16] = test system: HT-29
[17] = test system: IGROV-1
[18] = test system: K562
[19] = test system: KM12
[20] = test system: LOX IMVI
[21] = test system: M14
[22] = test system: MCF7
[23] = test system: MDA-MB-231
[24] = test system: MDA-MB-435
[25] = test system: MDA-N
[26] = test system: MOLT-4
[27] = test system: Malme-3M
[28] = test system: NCI-H226
[29] = test system: NCI-H23
[30] = test system: NCI-H460
[31] = test system: NCI/ADR-RES
[32] = test system: OVCAR-3
[33] = test system: OVCAR-4
[34] = test system: OVCAR-5
[35] = test system: OVCAR-8
[36] = test system: PC-3
[37] = test system: RPMI-8226
[38] = test system: RXF 393
[39] = test system: SF-268
[40] = test system: SF-295
[41] = test system: SF-539
[42] = test system: SK-MEL-28
[43] = test system: SK-MEL-2
[44] = test system: SK-MEL-5
[45] = test system: SK-OV-3
[46] = test system: SN12C
[47] = test system: SNB-75
[48] = test system: SR
[49] = test system: SW-620
[50] = test system: T47D
[51] = test system: TK-10
[52] = test system: U-251
[53] = test system: UACC-257
[54] = test system: UACC-62
[55] = test system: HL-60
[56] = test system: SNB-19
[57] = test system: UO-31

In the case of `O=C1C2=Cc3ccccc3OC2(O)Oc2cc3ccccc3cc21` (stereo not drawn), the GI50 [1] is reported as > 100 µM (inactive), the GI50 [2] is reported as > 100 µM (inactive) and the GI50 [3] is reported as > 100 µM (inactive). The GI50 [4] was 87.9 µM (inactive), the GI50 [5] was 15.1 µM (inactive) and the GI50 [6] was > 100 µM (inactive). The GI50 [7] was > 100 µM (inactive), the GI50 [8] was > 100 µM (inactive) and the GI50 [9] was > 100 µM (inactive). The GI50 [10] was > 100 µM (inactive), the GI50 [11] was 28.1 µM (inactive) and the GI50 [12] was > 100 µM (inactive). For the same molecule, the GI50 [13] was over 100 µM, the GI50 [14] was > 100 µM (inactive) and the GI50 [15] was 74.3 µM (inactive). The GI50 [16] was > 100 µM (inactive), the GI50 [17] was 28.7 µM (inactive) and the GI50 [18] was > 100 µM (inactive). The GI50 [19] was 41.4 µM (inactive), the GI50 [20] was > 100 µM (inactive) and the GI50 [21] was > 100 µM (inactive). The GI50 [22] was > 100 µM (inactive), the GI50 [23] was > 100 µM (inactive) and the GI50 [24] was > 100 µM (inactive). For the same molecule, the GI50 [25] was > 100 µM (inactive), the GI50 [26] was > 100 µM (inactive) and the GI50 [27] was > 100 µM (inactive). For the same molecule, the GI50 [28] was 56.1 µM (inactive), the GI50 [29] was > 100 µM (inactive) and the GI50 [30] was > 100 µM (inactive). For the same molecule, the GI50 [31] was > 100 µM (inactive), the GI50 [32] was 57.8 µM (inactive) and the GI50 [33] was 49.7 µM (inactive). The GI50 [34] was > 100 µM (inactive), the GI50 [35] was > 100 µM (inactive) and the GI50 [36] was > 100 µM (inactive). The GI50 [37] was > 100 µM (inactive), the GI50 [38] was 58.1 µM (inactive) and the GI50 [39] was 36.1 µM (inactive). For the same molecule, the GI50 [40] was 94.8 µM (inactive), the GI50 [41] was 20 µM (inactive) and the GI50 [42] was > 100 µM (inactive). For the same molecule, the GI50 [43] was > 100 µM (inactive), the GI50 [44] was > 100 µM (inactive) and the GI50 [45] was 56.5 µM (inactive). The GI50 [46] was > 100 µM (inactive), the GI50 [47] was 25.9 µM (inactive) and the GI50 [48] was > 100 µM (inactive). The GI50 [49] was > 100 µM (inactive), the GI50 [50] was > 100 µM (inactive) and the GI50 [51] was > 100 µM (inactive). For the same molecule, the GI50 [52] was 50.9 µM (inactive), the GI50 [53] was > 100 µM (inactive) and the GI50 [54] was > 100 µM (inactive).

With `COc1ccc(-c2cs/c(=N\c3ccccc3)n2CCCN(C)C)cc1` the GI50 [2] was 22 µM (inactive), the GI50 [3] was 17.1 µM (inactive) and the GI50 [4] was 21.8 µM (inactive). The GI50 [5] was 19.2 µM (inactive), the GI50 [6] was 71.9 µM (inactive) and the GI50 [7] was 21.1 µM (inactive). The GI50 [11] was 16.3 µM (inactive), the GI50 [13] was 24.8 µM and the GI50 [55] was 5.58 µM (inactive). For the same molecule, the GI50 [14] was 13.6 µM (inactive), the GI50 [15] was 26.3 µM (inactive) and the GI50 [19] was 15 µM (inactive). For the same molecule, the GI50 [21] was 10.7 µM (inactive), the GI50 [23] was 44.2 µM (inactive) and the GI50 [24] was 18.4 µM (inactive). The GI50 [25] was 30.6 µM (inactive), the GI50 [26] was 16.5 µM (inactive) and the GI50 [28] was 18.2 µM (inactive). For the same molecule, the GI50 [29] was 23.1 µM (inactive), the GI50 [30] was 23.8 µM (inactive) and the GI50 [31] was 15.2 µM (inactive). The GI50 [32] was 17.1 µM (inactive), the GI50 [33] was 23.3 µM (inactive) and the GI50 [34] was 14.8 µM (inactive). The GI50 [35] was 21.8 µM (inactive), the GI50 [36] was 12.6 µM (inactive) and the GI50 [37] was 24.5 µM (inactive). The GI50 [38] was 12.2 µM (inactive), the GI50 [39] was 24.3 µM (inactive) and the GI50 [40] was 13 µM (inactive). For the same molecule, the GI50 [41] was 13.6 µM (inactive), the GI50 [42] was 18.2 µM (inactive) and the GI50 [43] was 19.8 µM (inactive). The GI50 [45] was 15.6 µM (inactive), the GI50 [46] was 33.7 µM (inactive) and the GI50 [56] was 19.2 µM (inactive). The GI50 [47] was 4.44 µM (inactive), the GI50 [48] was 22.8 µM (inactive) and the GI50 [49] was > 10 µM (inactive). The GI50 [51] was 14.2 µM (inactive), the GI50 [52] was 43.4 µM (inactive) and the GI50 [53] was 18.9 µM (inactive). The GI50 [54] was 15.1 µM (inactive) and the GI50 [57] was 12.4 µM (inactive).
